Several values for one entry are separate records, joined by “and”; a condition that tells them apart may be missing. Equal entries are not always repeated. Inconclusive results and toxic doses are left out. Cut-off read from the data, not from the text of the source: active = T/C of 150% or more; inactive = T/C below 125%.
System: L1210 leukemia ip in BDF1 mice, survival T/C
Test: NCI In Vivo Anticancer Drug Screen. Data for tumor model L1210 Leukemia (intraperitoneal) in B6D2F1 (BDF1) mice
Details: endpoint: mean survival time, higher = longer survival
Procedure, shortened: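 Value reflects the ratio of survival in compound-treated mice to survival in vehicle-treated controls, with both groups carrying the same transplanted tumor.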

[1] = dose: 100.0 mg/kg/injection, schedule: Q01DX009 (ip), vehicle: saline with Tween-80
[2] = dose: 100.0 mg/kg/injection, schedule: Q04DX003 (ip), vehicle: other
[3] = dose: 200.0 mg/kg/injection, schedule: Q01DX009 (ip), vehicle: saline with Tween-80
[4] = dose: 200.0 mg/kg/injection, schedule: Q04DX003 (ip), vehicle: other
[5] = dose: 50.0 mg/kg/injection, schedule: Q04DX003 (ip), vehicle: Klucel (hydroxypropylcellulose) (HPC)
[6] = dose: 100.0 mg/kg/injection, schedule: Q01DX009 (ip), vehicle: Klucel (hydroxypropylcellulose) (HPC)
[7] = dose: 100.0 mg/kg/injection, schedule: Q04DX003 (ip), vehicle: Klucel (hydroxypropylcellulose) (HPC)
[8] = dose: 200.0 mg/kg/injection, schedule: Q01DX009 (ip), vehicle: Klucel (hydroxypropylcellulose) (HPC)
[9] = dose: 200.0 mg/kg/injection, schedule: Q04DX003 (ip), vehicle: Klucel (hydroxypropylcellulose) (HPC)
[10] = dose: 400.0 mg/kg/injection, schedule: Q01DX009 (ip), vehicle: Klucel (hydroxypropylcellulose) (HPC)
[11] = dose: 400.0 mg/kg/injection, schedule: Q04DX003 (ip), vehicle: Klucel (hydroxypropylcellulose) (HPC)
[12] = dose: 100.0 mg/kg/injection, schedule: Q04DX002 (ip), vehicle: Klucel (hydroxypropylcellulose) (HPC)
[13] = dose: 200.0 mg/kg/injection, schedule: Q04DX002 (ip), vehicle: Klucel (hydroxypropylcellulose) (HPC)
[14] = dose: 400.0 mg/kg/injection, schedule: Q04DX002 (ip), vehicle: Klucel (hydroxypropylcellulose) (HPC)
[15] = dose: 25.0 mg/kg/injection, schedule: Q01DX009 (ip), vehicle: water
[16] = dose: 50.0 mg/kg/injection, schedule: Q01DX009 (ip), vehicle: water
[17] = dose: 100.0 mg/kg/injection, schedule: Q01DX009 (ip), vehicle: saline
[18] = dose: 200.0 mg/kg/injection, schedule: Q01DX009 (ip), vehicle: saline
[19] = dose: 400.0 mg/kg/injection, schedule: Q01DX009 (ip), vehicle: saline
[20] = dose: 25.0 mg/kg/injection, schedule: Q04DX003 (ip), vehicle: Klucel (hydroxypropylcellulose) (HPC)
[21] = dose: 100.0 mg/kg/injection, schedule: Q01DX001 (ip), vehicle: carboxymethylcellulose (CMC)
[22] = dose: 200.0 mg/kg/injection, schedule: Q01DX001 (ip), vehicle: carboxymethylcellulose (CMC)
[23] = dose: 400.0 mg/kg/injection, schedule: Q01DX001 (ip), vehicle: carboxymethylcellulose (CMC)
[24] = dose: 12.5 mg/kg/injection, schedule: Q04DX003 (ip), vehicle: saline
[25] = dose: 50.0 mg/kg/injection, schedule: Q01DX001 (ip), vehicle: carboxymethylcellulose (CMC)

Measured: T/C

Cc1nnc(N)s1
inactive: dose: 100.0 mg/kg/injection, schedule: Q01DX001 (ip), vehicle: other 102 % of control | [1] 95 % of control | [2] 104 % of control | dose: 200.0 mg/kg/injection, schedule: Q01DX001 (ip), vehicle: other 102 % of control | [3] 92 % of control | [4] 95 % of control | dose: 400.0 mg/kg/injection, schedule: Q01DX001 (ip), vehicle: other 100 % of control | dose: 400.0 mg/kg/injection, schedule: Q01DX009 (ip), vehicle: saline with Tween-80 93 % of control | dose: 400.0 mg/kg/injection, schedule: Q04DX003 (ip), vehicle: other 98 % of control

CCCCC(CC)CCC(O)CC(C)C (centres undefined)
inactive: [5] 91 % of control | [6] 104 % of control | [7] 92 % of control | [8] 101 % of control | [9] 97 % of control | [10] 89 % of control | [11] 96 % of control

O=Nc1ccc(O)cc1I
inactive: [12] 100 % of control | [13] 97 % of control | [14] 93 % of control

NC(N)=Nc1ccc(OC(=O)c2ccc(N=C(N)N)cc2)cc1
inactive: [15] 96 % of control | [16] 96 % of control

CNC(=O)NCc1cccnc1
inactive: [17] 111 % of control | [18] 103 % of control | [19] 114 % of control

C1CCC(C2=NC3CCCCC3SC2)CC1 (centres undefined)
inactive: dose: 100.0 mg/kg/injection, schedule: Q04DX002 (sc), vehicle: olive oil, sesame oil, peanut oil 103 % of control | dose: 200.0 mg/kg/injection, schedule: Q04DX002 (sc), vehicle: olive oil, sesame oil, peanut oil 107 % of control | dose: 400.0 mg/kg/injection, schedule: Q04DX002 (sc), vehicle: olive oil, sesame oil, peanut oil 96 % of control

CC1(C)C=C(C(Br)c2cccc(Cl)c2)C(=O)c2ccccc21 (centres undefined)
inactive: [6] 101 % of control | [7] 109 % of control | [8] 104 % of control | [9] 106 % of control | [10] 106 % of control | [11] 104 % of control

O=C(O)C(Cc1ccccc1)NC(=O)C(F)(F)F (centres undefined)
inactive: [2] 90 % of control | [4] 89 % of control

CC(C)c1ncc([N+](=O)[O-])n1C
inactive: [20] 97 % of control | [5] 95 % of control | [21] 103 % of control | [6] 102 % of control | [7] 97 % of control and 114 % of control | [22] 101 % of control | [9] 104 % of control | [23] 101 % of control | [10] 91 % of control | [11] 106 % of control

Cc1[nH]nc(C(=O)N(C)C)c1N=NN(C)C
inactive: dose: 75.0 mg/kg/injection, schedule: Q01DX001 (ip), vehicle: saline 116 % of control

Cc1cc2ccccc2c[n+]1C
inactive: dose: 12.5 mg/kg/injection, schedule: Q01DX009 (ip), vehicle: saline 95 % of control | [24] 106 % of control | dose: 25.0 mg/kg/injection, schedule: Q01DX009 (ip), vehicle: saline 101 % of control | dose: 25.0 mg/kg/injection, schedule: Q04DX003 (ip), vehicle: saline 90 % of control | dose: 50.0 mg/kg/injection, schedule: Q01DX009 (ip), vehicle: saline 108 % of control | dose: 50.0 mg/kg/injection, schedule: Q04DX003 (ip), vehicle: saline 107 % of control

CCCCCCCCCCCCCCCCCC(=O)OCC(O)COC(C)=O (centres undefined)
inactive: dose: 12.5 mg/kg/injection, schedule: Q01DX009 (ip), vehicle: saline with Tween-80 98 % of control | dose: 25.0 mg/kg/injection, schedule: Q01DX009 (ip), vehicle: saline with Tween-80 95 % of control | dose: 50.0 mg/kg/injection, schedule: Q01DX009 (ip), vehicle: saline with Tween-80 95 % of control | [1] 91 % of control | [3] 91 % of control

C=CC=O
inactive: dose: 3.0 mg/kg/injection, schedule: Q01DX009 (ip), vehicle: saline 96 % of control | dose: 3.12 mg/kg/injection, schedule: Q01DX009 (ip), vehicle: saline 98 % of control | dose: 3.12 mg/kg/injection, schedule: Q04DX003 (ip), vehicle: saline 91 % of control | dose: 6.0 mg/kg/injection, schedule: Q01DX009 (ip), vehicle: saline 102 % of control | dose: 6.25 mg/kg/injection, schedule: Q01DX009 (ip), vehicle: saline 90 % of control | dose: 6.25 mg/kg/injection, schedule: Q04DX003 (ip), vehicle: saline 97 % of control | dose: 7.5 mg/kg/injection, schedule: Q04DX003 (ip), vehicle: saline 88 % of control | dose: 12.0 mg/kg/injection, schedule: Q01DX009 (ip), vehicle: saline 102 % of control | dose: 12.0 mg/kg/injection, schedule: Q04DX003 (ip), vehicle: Klucel (hydroxypropylcellulose) (HPC) 98 % of control | [24] 89 % of control | [20] 101 % of control | dose: 100.0 mg/kg/injection, schedule: Q01DX001 (ip), vehicle: saline 117 % of control | dose: 200.0 mg/kg/injection, schedule: Q01DX001 (ip), vehicle: saline 109 % of control | dose: 400.0 mg/kg/injection, schedule: Q01DX001 (ip), vehicle: saline 98 % of control

CCOC(=O)c1ccc(N(CCC(O)CN=[N+]=[N-])S(=O)(=O)c2ccc(C)cc2)cc1 (centres undefined)
inactive: [25] 96 % of control | [21] 100 % of control | [22] 96 % of control | [23] 100 % of control

CCOC(=O)CCN1CCCCC1
inactive: [17] 101 % of control | dose: 100.0 mg/kg/injection, schedule: Q04DX003 (ip), vehicle: saline 93 % of control | [18] 98 % of control | dose: 200.0 mg/kg/injection, schedule: Q04DX003 (ip), vehicle: saline 97 % of control | [19] 104 % of control | dose: 400.0 mg/kg/injection, schedule: Q04DX003 (ip), vehicle: saline 103 % of control

Cc1c([N+](=O)[O-])cc(CCn2cnc3c(=O)[nH]cnc32)cc1[N+](=O)[O-]
inactive: [25] 98 % of control | [21] 98 % of control | [22] 95 % of control | [23] 104 % of control

CC(=O)Nc1ccc2c(c1)C(N(C)C)c1ccccc1-2 (centres undefined)
inactive: [25] 101 % of control | [21] 106 % of control

C=C(C)[P+](C)(c1ccccc1)c1ccccc1
inactive: dose: 2.5 mg/kg/injection, schedule: Q01DX001 (ip), vehicle: saline 102 % of control | dose: 5.0 mg/kg/injection, schedule: Q01DX001 (ip), vehicle: saline 105 % of control

O=C1C=CC(=O)c2c(O)c(CBr)c(CBr)c(O)c21
inactive: dose: 6.25 mg/kg/injection, schedule: Q01DX009 (ip), vehicle: water 101 % of control | dose: 12.5 mg/kg/injection, schedule: Q01DX009 (ip), vehicle: water 92 % of control | [15] 93 % of control and 94 % of control | [16] 89 % of control

c1ccc(Nc2nnc(Nc3ccccc3)s2)cc1
inactive: dose: 100.0 mg/kg/injection, schedule: Q01DX001 (ip), vehicle: Klucel (hydroxypropylcellulose) (HPC) 92 % of control | dose: 200.0 mg/kg/injection, schedule: Q01DX001 (ip), vehicle: Klucel (hydroxypropylcellulose) (HPC) 103 % of control | dose: 400.0 mg/kg/injection, schedule: Q01DX001 (ip), vehicle: Klucel (hydroxypropylcellulose) (HPC) 106 % of control

Nc1ccc(OCCCc2c(N)nc(N)nc2N)c(Cl)c1
inactive: [7] 96 % of control | [9] 94 % of control | [11] 97 % of control

O=C(NCCCCNC(=O)Nc1cccc(C2=NCCCN2)c1)Nc1cccc(C2=NCCCN2)c1
inactive: dose: 0.65 mg/kg/injection, schedule: Q01DX Z (ip), vehicle: carboxymethylcellulose (CMC) 97 % of control | dose: 1.3 mg/kg/injection, schedule: Q01DX Z (ip), vehicle: carboxymethylcellulose (CMC) 97 % of control

CSc1ccc(OC(=O)Nc2cccc3ccccc23)cc1C
inactive: [12] 101 % of control | [13] 101 % of control | [14] 104 % of control

— PubChem BioAssay AID248 (DTP/NCI, 2004)
